Data as given in the supplement of paper PMC4628005.

Assays:
Conditions in all cases: drug exposure time: 96 h
Erlotinib = compound: C#Cc1cccc(Nc2ncnc3cc(OCCOC)c(OCCOC)cc23)c1 [Erlotinib]
Procedure: (§1)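 Breast cancer cell lines were grown in RPMI 1640 with 10% FBS on collagen I-coated 96-well plates and treated for 96 h (from 24 h after seeding) with 12 dilutions per drug, in triplicate. Growth was read by sulforhodamine B total-protein staining (absorbance 570 nm) relative to diluent control, and IC50 was calculated. The top dose was 1e-5 M for most drugs; Bortezomib went to 2e-5 M and Sirolimus and 17-AAG to 2e-6 M[…].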

Docetaxel = compound: CC(=O)O[C@@]12CO[C@@H]1C[C@H](O)[C@@]1(C)C(=O)[C@H](O)C3=C(C)[C@@H](OC(=O)[C@H](O)[C@@H](NC(=O)OC(C)(C)C)c4ccccc4)C[C@@](O)([C@@H](OC(=O)c4ccccc4)[C@H]21)C3(C)C [Docetaxel]
Procedure: as §1

Paclitaxel = compound: CC(=O)O[C@H]1C(=O)[C@@]2(C)[C@H]([C@H](OC(=O)c3ccccc3)[C@]3(O)C[C@H](OC(=O)[C@H](O)[C@@H](NC(=O)c4ccccc4)c4ccccc4)C(C)=C1C3(C)C)[C@]1(OC(C)=O)CO[C@@H]1C[C@@H]2O [Paclitaxel]
Procedure: as §1

MI-219 = compound: CC(C)(C)C[C@H]1N[C@@H](C(=O)NCC[C@H](O)CO)[C@H](c2cccc(Cl)c2)[C@@]12C(=O)Nc1cc(Cl)c(F)cc12 [MI-219]
Procedure: as §1

Tamoxifen = compound: CC/C(=C(\c1ccccc1)c1ccc(OCCN(C)C)cc1)c1ccccc1 [Tamoxifen]
Procedure: as §1

Sunitinib = compound: CCN(CC)CCNC(=O)c1c(C)[nH]c(/C=C2\C(=O)Nc3ccc(F)cc32)c1C [Sunitinib]
Procedure: as §1

Methotrexate = compound: CN(Cc1cnc2nc(N)nc(N)c2n1)c1ccc(C(=O)N[C@@H](CCC(=O)O)C(=O)O)cc1 [Methotrexate]
Procedure: as §1

Sorafenib = compound: CNC(=O)c1cc(Oc2ccc(NC(=O)Nc3ccc(Cl)c(C(F)(F)F)c3)cc2)ccn1 [Sorafenib]
Procedure: as §1

Vandetanib = compound: COc1cc2/c(=N/c3ccc(Br)cc3F)nc[nH]c2cc1OCC1CCN(C)CC1 [Vandetanib]
Procedure: as §1

Gefitinib = compound: COc1cc2ncnc(Nc3ccc(F)c(Cl)c3)c2cc1OCCCN1CCOCC1 [Gefitinib]
Procedure: as §1

Nutlin-3 = compound: COc1ccc(C2=N[C@@H](c3ccc(Cl)cc3)[C@@H](c3ccc(Cl)cc3)N2C(=O)N2CCNC(=O)C2)c(OC(C)C)c1 [Nutlin-3]
Procedure: as §1

Doxorubicin = compound: COc1cccc2c1C(=O)c1c(O)c3c(c(O)c1C2=O)C[C@@](O)(C(=O)CO)C[C@@H]3O[C@H]1C[C@H](N)[C@H](O)[C@H](C)O1 [Doxorubicin]
Procedure: as §1

Lapatinib = compound: CS(=O)(=O)CCNCc1ccc(-c2ccc3ncnc(Nc4ccc(OCc5cccc(F)c5)c(Cl)c4)c3c2)o1 [Lapatinib]
Procedure: as §1

Panobinostat = compound: Cc1[nH]c2ccccc2c1CCNCc1ccc(/C=C/C(=O)NO)cc1 [Panobinostat]
Procedure: as §1

Brivanib = compound: Cc1cc2c(F)c(Oc3ncnn4cc(OC[C@@H](C)O)c(C)c34)ccc2[nH]1 [Brivanib]
Procedure: as §1

Dasatinib = compound: Cc1nc(Nc2ncc(C(=O)Nc3c(C)cccc3Cl)s2)cc(N2CCN(CCO)CC2)n1 [Dasatinib]
Procedure: as §1

Quisinostat = compound: Cn1cc(CNCC2CCN(c3ncc(C(=O)NO)cn3)CC2)c2ccccc21 [Quisinostat]
Procedure: as §1

Tipifarnib = compound: Cn1cncc1[C@@](N)(c1ccc(Cl)cc1)c1ccc2c(c1)c(-c1cccc(Cl)c1)cc(=O)n2C [Tipifarnib]
Procedure: as §1

Cisplatin = compound: N.N.[Cl][Pt][Cl] [Cisplatin]
Procedure: as §1

Azacitidine = compound: Nc1ncn([C@@H]2O[C@H](CO)[C@@H](O)[C@H]2O)c(=O)n1 [Azacitidine]
Procedure: as §1

Decitabine = compound: Nc1ncn([C@H]2C[C@H](O)[C@@H](CO)O2)c(=O)n1 [Decitabine]
Procedure: as §1

Belinostat = compound: O=C(/C=C/c1cccc(S(=O)(=O)Nc2ccccc2)c1)NO [Belinostat]
Procedure: as §1

Vorinostat = compound: O=C(CCCCCCC(=O)Nc1ccccc1)NO [Vorinostat]
Procedure: as §1

ARQ197 = compound: O=C1NC(=O)[C@@H](c2cn3c4c(cccc24)CCC3)[C@@H]1c1c[nH]c2ccccc12 [ARQ197]
Procedure: as §1

Mitoxantrone = compound: O=C1c2c(O)ccc(O)c2C(=O)c2c(NCCNCCO)ccc(NCCNCCO)c21 [Mitoxantrone]
Procedure: as §1

5-Fluorouracil = compound: O=c1[nH]cc(F)c(=O)[nH]1 [5-Fluorouracil]
Procedure: as §1

Serdemetan = compound: c1ccc2c(CCNc3ccc(Nc4ccncc4)cc3)c[nH]c2c1 [Serdemetan]
Procedure: as §1

17-AAG = compound: C=CCNC1=C2C[C@@H](C)C[C@H](OC)[C@H](O)[C@@H](C)/C=C(\C)[C@H](OC(N)=O)[C@@H](OC)/C=C\C=C(/C)C(=O)NC(=CC1=O)C2=O [17-AAG]
Procedure: (§2)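 Same SRB 96 h IC50 screen on breast cancer cell lines (RPMI 1640 + 10% FBS, collagen I-coated 96-well plates, triplicates, 12 dilutions), for drugs with a different dose range: Bortezomib up to 2e-5 M; Sirolimus and 17-AAG up to 2e-6 M. Sirolimus values at the 2e-6 M top dose are censored.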

Bortezomib = compound: CC(C)C[C@H](NC(=O)[C@H](Cc1ccccc1)NC(=O)c1cnccn1)B(O)O [Bortezomib]
Procedure: as §2

Sirolimus = compound: CO[C@H]1C[C@@H]2CC[C@@H](C)[C@@](O)(O2)C(=O)C(=O)N2CCCC[C@H]2C(=O)O[C@H]([C@H](C)C[C@@H]2CC[C@@H](O)[C@H](OC)C2)CC(=O)[C@H](C)/C=C(\C)[C@@H](O)[C@@H](OC)C(=O)[C@H](C)C[C@H](C)/C=C/C=C/C=C/1C [Sirolimus]
Procedure: as §2

Row | Test System | IC50 (SRB growth assay) (Erlotinib) [nM] | IC50 (SRB growth assay) (Docetaxel) [nM] | IC50 (SRB growth assay) (Paclitaxel) [nM] | IC50 (SRB growth assay) (MI-219) [nM] | IC50 (SRB growth assay) (Tamoxifen) [nM] | IC50 (SRB growth assay) (Sunitinib) [nM] | IC50 (SRB growth assay) (Methotrexate) [nM] | IC50 (SRB growth assay) (Sorafenib) [nM] | IC50 (SRB growth assay) (Vandetanib) [nM] | IC50 (SRB growth assay) (Gefitinib) [nM] | IC50 (SRB growth assay) (Nutlin-3) [nM] | IC50 (SRB growth assay) (Doxorubicin) [nM] | IC50 (SRB growth assay) (Lapatinib) [nM] | IC50 (SRB growth assay) (Panobinostat) [nM] | IC50 (SRB growth assay) (Brivanib) [nM] | IC50 (SRB growth assay) (Dasatinib) [nM] | IC50 (SRB growth assay) (Quisinostat) [nM] | IC50 (SRB growth assay) (Tipifarnib) [nM] | IC50 (SRB growth assay) (Cisplatin) [nM] | IC50 (SRB growth assay) (Azacitidine) [nM] | IC50 (SRB growth assay) (Decitabine) [nM] | IC50 (SRB growth assay) (Belinostat) [nM] | IC50 (SRB growth assay) (Vorinostat) [nM] | IC50 (SRB growth assay) (ARQ197) [nM] | IC50 (SRB growth assay) (Mitoxantrone) [nM] | IC50 (SRB growth assay) (5-Fluorouracil) [nM] | IC50 (SRB growth assay) (Serdemetan) [nM] | IC50 (SRB growth assay) (17-AAG) [nM] | IC50 (SRB growth assay) (Bortezomib) [nM] | IC50 (SRB growth assay) (Sirolimus) [nM]
1 | CAMA 1 | > 10000 | 0.662 | 1.95 | > 10000 | 7980 | 5680 | 8300 | 5240 | > 10000 | > 10000 | > 10000 | 21.8 | 4200 | 12.6 | > 10000 | > 10000 | 2.87 | 3040 | > 10000 | 5560 | 1040 | 339 | 1020 | 424 | 6.16 | 1560 | 1520 | 22.7 | 6.12 | 0.106
2 | HCC 1937 | > 10000 | 1.08 | 4.02 | > 10000 | 5720 | 6000 | 65.5 | 6230 | 4060 | > 10000 | > 10000 | – | 1930 | 42.1 | > 10000 | 4730 | 43.9 | – | – | > 10000 | 1930 | 572 | 1760 | – | 76.6 | 5280 | 1050 | 26.7 | 5.14 | 5.98
3 | MDA-MB 231 | > 10000 | 0.535 | 1.49 | > 10000 | 9790 | 2520 | 2.1 | 4270 | 4800 | > 10000 | > 10000 | – | 65.7 | 15.5 | 6480 | 67.6 | 16.1 | – | – | > 10000 | 65.7 | 410 | 1320 | – | 2.65 | 2580 | 474 | 683 | 4.43 | 4.75
4 | MDA-MB-175 VII | > 10000 | 6.87 | 7.47 | 1360 | 7370 | > 10000 | 595 | 6470 | 2450 | > 10000 | 3740 | – | > 10000 | 15.2 | > 10000 | 513 | 14.8 | – | – | > 10000 | > 10000 | 493 | 898 | – | 12.6 | 4180 | 4890 | 15 | 8 | 1.27
